From patent US20250361210A1, “3,4-DIHYDROQUINOLIN-2(1H)-ONE COMPOUND” (Kissei Pharmaceutical Co., Ltd., priority 2022, published 2025)

molecular target: T1, human TSHR (Homo sapiens, UniProt P16473); experiment: Antagonist activity using TSH-induced cAMP production in human TSHR-stably expressing CHO cells; type: cell-based; settings: human TSH 50 ng/mL
T1 construct: expressed in transfected cells
Experimental: Measurement of Antagonist Activity Using TSH-Induced cAMP Production in Human TSHR-Stably Expressing CHO Cells as an Indicator
The human TSHR gene sequence (reference number NM_000369.2) was inserted into the multicloning site of pcDNA3.1(+). The constructed plasmid vector was introduced into CHO cells using the lipofection method to establish human TSHR-stably expressing CHO cells. The obtained cells were seeded at 5×10^4 cells/well in a 96-well poly-D-lysine-coated plate, and cultured in an F12 culture medium containing 10% FBS, 400 μg/mL of G418, 50 U/mL of penicillin and 50 μg/mL of streptomycin under conditions of 37° C. and 5% CO2 for 1 day. After the culture medium was removed, the cells were washed twice with 100 μL of an assay buffer solution (Hanks' Balanced Salt Solution containing 20 mM HEPES and 1 mM IBMX) per well. 30 μL of a test compound-containing assay buffer solution was added to the well and incubated at room temperature for 15 minutes. Then, 30 μL of an assay buffer solution containing human TSH (final concentration 50 ng/mL, R&D Systems, Inc.) was added, and incubated at 37° C. for 1 hour. The supernatant was removed, a Lysis and Detection Buffer 2 (Cisbio) was added, and the mixture was incubated at room temperature for 1 hour to prepare a cell lysate. According to the instruction manual of a cAMP Gs HiRange kit (Cisbio), the cell lysate, d2-labeled cAMP and anti-cAMP Europium Cryptate labeled antibodies (Cisbio) were reacted in a 384-well white microplate. Then, a fluorescence intensity ratio (measurement wavelength 665 nm/620 nm) was measured using a multi-plate reader (PHERAstar FSX, BMG LABTECH, Japan). The fluorescence intensity ratio of each sample was converted to a cAMP content using a standard curve. The cAMP content was converted as a percentage of the control value to calculate the cAMP production rate. The CAMP production rate was plotted against the test compound concentration using Prism (Graph Pad Software Inc.) to calculate the IC50 value. The IC50 of each test compound is shown in the above tables. In the tables, IC50<0.5 μM: A, 0.5 μM≤IC50<3.0 μM: B, 3.0 μM≤IC50<30 μM: C are shown.

T1 sequence (P16473 21-764): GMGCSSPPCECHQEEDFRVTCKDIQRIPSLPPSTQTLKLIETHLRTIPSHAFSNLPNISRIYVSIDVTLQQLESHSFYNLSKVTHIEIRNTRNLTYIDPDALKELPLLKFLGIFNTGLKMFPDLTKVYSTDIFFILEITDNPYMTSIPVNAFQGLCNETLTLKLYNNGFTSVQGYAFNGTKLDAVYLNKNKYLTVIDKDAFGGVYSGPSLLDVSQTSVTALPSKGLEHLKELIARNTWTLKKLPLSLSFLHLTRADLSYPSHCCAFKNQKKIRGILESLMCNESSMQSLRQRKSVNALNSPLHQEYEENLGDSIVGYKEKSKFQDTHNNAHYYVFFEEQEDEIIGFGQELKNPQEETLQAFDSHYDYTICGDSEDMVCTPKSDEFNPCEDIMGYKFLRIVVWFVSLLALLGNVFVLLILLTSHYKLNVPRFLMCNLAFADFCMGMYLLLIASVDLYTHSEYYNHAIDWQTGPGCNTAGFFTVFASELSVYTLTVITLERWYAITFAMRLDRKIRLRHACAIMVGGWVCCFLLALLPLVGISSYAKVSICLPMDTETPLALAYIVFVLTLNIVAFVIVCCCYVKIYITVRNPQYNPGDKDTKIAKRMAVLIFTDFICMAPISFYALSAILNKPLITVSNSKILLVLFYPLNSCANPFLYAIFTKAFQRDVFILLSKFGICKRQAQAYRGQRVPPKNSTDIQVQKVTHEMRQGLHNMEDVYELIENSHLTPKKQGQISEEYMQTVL

Compound	IC50 [nM]
CN1C(=O)[C@H](NC(N)=O)Cc2ccc(F)c(Oc3ccccc3C(F)(F)F)c21 [Example 36]	500 to 3000
CC(c1ccccc1Cl)c1cccc2c1N(C)C(=O)[C@H](NC(N)=O)C2 (stereo partly drawn) [Example 77, ((3R)-8-(1-(2-chlorophenyl)ethyl)-1-methyl-2-oxo-1,2,3,4-tetrahydroquinolin-3-yl)urea]	< 500
CCc1cccc(Oc2cccc3c2N(C)C(=O)[C@H](NC(N)=O)C3)c1 [Example 15]	500 to 3000
Cc1ccc2c(c1Oc1cc(F)ccc1Cl)N(C)C(=O)[C@H](NC(N)=O)C2 [Example 39, ((3R)-8-(2-chloro-5-fluorophenoxy)-1,7-dimethyl-2-oxo-1,2,3,4-tetrahydroquinolin-3-yl)urea]	< 500

Results, then the molecule that gave them:

IC50 [nM]	Compound
< 500	Cc1ccccc1Cc1c(F)ccc2c1N(C)C(=O)[C@H](NC(N)=O)C2 [Example 63, ((3R)-7-fluoro-1-methyl-8-((2-methylphenyl)methyl)-2-oxo-1,2,3,4-tetrahydroquinolin-3-yl)urea]
< 500	Cc1ccc2c(c1Oc1ccccc1F)N(C)C(=O)[C@H](NC(N)=O)C2 [Example 45, ((3R)-8-(2-fluorophenoxy)-1,7-dimethyl-2-oxo-1,2,3,4-tetrahydroquinolin-3-yl)urea]
< 500	Cc1ccc2c(c1Cc1ccccc1Cl)N(C)C(=O)[C@H](NC(N)=O)C2 [Example 58, ((3R)-8-((2-chlorophenyl)methyl)-1,7-dimethyl-2-oxo-1,2,3,4-tetrahydroquinolin-3-yl)urea]

molecular target: T2, TSHR (Mus musculus, UniProt P47750); experiment: not given; settings: mice in which TRH has been administered and mice in which thyroid stimulating antibodies M22 has been administered; cited from earlier work
T2 construct: host or cells: mice (in vivo)
T2 sequence (P47750 22-764): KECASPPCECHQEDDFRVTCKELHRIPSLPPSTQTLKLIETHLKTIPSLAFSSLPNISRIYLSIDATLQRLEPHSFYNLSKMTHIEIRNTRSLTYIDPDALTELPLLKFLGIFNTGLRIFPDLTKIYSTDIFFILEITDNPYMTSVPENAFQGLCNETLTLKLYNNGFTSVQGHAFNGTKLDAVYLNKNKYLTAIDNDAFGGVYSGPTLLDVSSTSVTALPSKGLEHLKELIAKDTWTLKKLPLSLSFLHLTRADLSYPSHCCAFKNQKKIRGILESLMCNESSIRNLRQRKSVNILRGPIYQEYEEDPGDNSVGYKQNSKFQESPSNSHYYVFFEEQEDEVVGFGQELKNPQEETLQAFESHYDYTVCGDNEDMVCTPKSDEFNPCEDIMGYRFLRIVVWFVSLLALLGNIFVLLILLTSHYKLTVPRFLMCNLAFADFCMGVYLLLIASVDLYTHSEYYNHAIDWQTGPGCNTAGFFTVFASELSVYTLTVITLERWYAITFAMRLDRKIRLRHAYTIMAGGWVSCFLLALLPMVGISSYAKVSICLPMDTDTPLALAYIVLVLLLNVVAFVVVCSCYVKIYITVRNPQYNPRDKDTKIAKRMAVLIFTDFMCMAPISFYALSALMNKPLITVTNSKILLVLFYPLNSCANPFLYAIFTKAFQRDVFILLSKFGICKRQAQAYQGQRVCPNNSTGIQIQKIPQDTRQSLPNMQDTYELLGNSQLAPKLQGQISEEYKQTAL

Compound	blood T4 concentration
COc1ccc(C2Nc3ccccc3C(=O)N2Cc2ccco2)cc1COc1c(C)cc(NC(C)=O)cc1C (centres unmarked) [NCGC00242364]	blood T4 concentration lowering effect
